The source of these data is article PMC6479099, “Aminoguanidines: New leads for treatment of Giardia duodenalis infection” (International Journal for Parasitology: Drugs and Drug …, 2019).

Usually GI50 stands for the concentration at which growth is held to half of that of the control.

Values after ≈ are worked out from the molar mass of the structure shown. Read-outs that look alike come from different tables or passages of the source. A value given as a limit tells only on which side of the number the result lay.

The test system of data set [1] is Giardia trophozoites (BAH2c2). Briefly: Proliferation of Giardia trophozoites (resazurin, 96 h). The data set is classed as cell-based, Giardia duodenalis. The note with it: read-out: IC50prol, Assemblage A (50% inhibition in the proliferation assay). The method, then: The effect of the compounds on the proliferation of Giardia trophozoites was determined following the protocol outlined above, with the following modifications. The number of trophozoites was decreased to 1000 per well and the cells were incubated in the presence of each compound for 96 h at 37 °C.
(§1) The IC50 of each compound was determined using a resazurin reduction assay, which measures the metabolic activity of cells, using the log (inhibitor) vs. normalised response – variable slope function in Graphpad Prism. The compounds were tested against an assemblage A (BAH2c2, 24 h) and an assemblage B (BAH12, 24 h) isolate (Table 1). […] The effect of the compounds on the proliferation of Giardia trophozoites (BAH2c2) was also determined.

The subject of data set [2] is giardiasis. Details: method as in Wright et al., 2003. The note with it: ref Wright et al., 2003; cited from earlier work.
The subject of data set [3] is Giardia duodenalis BAH2c2 strain, assemblage A. The experiment in a line: Resazurin reduction assay, assemblage A isolate. The format is cell-based. As to conditions: for MLC (minimum lethal concentration), Assemblage A: concentration at which no metabolism of resazurin was observed; for IC50: Giardia duodenalis, 24 h, read-out: IC50, Assemblage A. How it is done:
(§2) G. duodenalis (BAH2c2 and BAH12 strain) was cultivated according to the method of Clark and Diamond in Keister's modified TYI-S-33 medium, supplemented with heat inactivated foetal bovine serum (Hyclone™, Thermo Fisher Scientific, Scoresby, Victoria, Australia) at 37 °C in plastic 9 mL screw-capped test tubes (nunc, Thermo Fisher Scientific, Scoresby, Victoria, Australia). Subcultures were performed once a confluent monolayer was observed, approximately 2–3 times per week ([Clark and Diamond, 2002]).
(§3) The in-vitro compound efficacy was determined using a resazurin reduction assay as previously described ([Benere et al., 2007]). The media of confluent cultures was replaced with fresh media and the cultures were placed on ice for 40 min to detach trophozoites. Trophozoites were enumerated using a haemocytometer and 50 000 trophozoites were added to each test well of a 96 well plate. Doubling or tripling dilutions of the test compounds were added to wells beginning at 25 or 50 μM compound concentration (previously prepared in DMSO). Metronidazole and DMSO (vehicle only) were used as controls. Plates were incubated under anaerobic conditions, using anaerobic gas generating sachets, (AnaeroGen, Thermo Fisher Scientific, Scoresby, Victoria, Australia) for 24 h at 37 °C. After incubation the media was removed and replaced with an equal volume of warm PBS. Resazurin (Alamarblue, Thermo Fisher Scientific, Scoresby, Victoria, Australia) was then added at 10% of the total volume of the wells. Plates were further incubated (1.5 h) for colour development and absorbance read at 570 nm and 630 nm. The percentage resazurin reduction was then calculated using the following formula:((εoxi630 x A570) – (εoxi570 x A630))/((εred570 x C630)-([…])) x 100Where: εoxi630 = 34798, εoxi570 = 80586, A570 = absorbance at 570 nm, A630 = absorbance at 630 nm, εred570 = 155677, εred630 = 5494, C630 = absorbance of negative control well at 630 nm and C570 = absorbance of negative control well at 570 nm.
(§4) For the resazurin reduction assay the mean and standard error of the mean were determined with each assay completed in triplicate. The IC50 was calculated using the log (inhibitor) vs. normalised response – variable slope function in Graphpad Prism. For the adherence assay mean and standard error of the mean were calculated and data analysed using an unpaired t-test, relative to untreated control.
as §1
Absorbance was measured (630 and 570 nm), percent reduction of resazurin calculated and data presented as a percentage of the growth control. Treatment groups are: square - metronidazole; triangle –NCL 099; diamond - robenidine; and circle - NCL 062. Error ± SEM, n = 3. Data represents a typical experiment. Note the break in the x-axis indicates a change in the scale of drug concentration.
In general terms: Alamar Blue is a resazurin reagent that responds to reducing activity.

Data set [4] relates to AT region of DNA. Also noted: method as in Nguyen et al., 2002. As to conditions: ref Nguyen et al., 2002; cited from earlier work.
The subject of data set [5] is Giardia duodenalis BAH12, assemblage B. The experiment in a line: Resazurin reduction assay, assemblage B isolate. As to conditions: BAH12, 24 h; for IC50: Giardia duodenalis, resazurin metabolic assay. The format is cell-based. How it is done: as §2, §3, §4, §1
In data set [6] the test system is Giardia duodenalis trophozoites. The experiment in a line: Modified adherence assay. The format is cell-based. The note with it: 4 μM, 5 h exposure. How it is done:
(§5) A second screening method, based on counting adherent trophozoites, was developed and used to validate the primary screen method, modified from earlier adherence assay protocols ([Crouch et al., 1986]). The assay was prepared in 24 well plates with plastic coverslips placed in the bottom. Trophozoites were prepared as above by placing on ice and ∼5 × 10^5 cells/mL were added to each well. Drugs prepared in DMSO were added at the required concentration, with the DMSO concentration never exceeding 1%. Assay plates were incubated for 5 h at 37 °C under anaerobic conditions, the media removed and cells adhering to the coverslips were fixed with glutaraldehyde or methanol. Once the coverslips were dry, cells were stained with a Romanowsky stain variant (Rapid stain), fixed to a glass slide and imaged at 10x or 100x magnification. Images (10x magnification) were processed with DotCount v1.2 software (http://reuter.mit.edu/, 2008–2012 ^© Martin Reuter) to count the number of cells present and data analysed using GraphPad Prism version 6.00 for Windows, GraphPad Software, La Jolla California USA, www.graphpad.com. Images (100x magnification) were assessed for obvious morphological changes.
The results for the in vitro drug efficacy studies were analysed using GraphPad Prism version 6.00 for Windows, GraphPad Software, La Jolla California USA, www.graphpad.com. For the resazurin reduction assay the mean and standard error of the mean were determined with each assay completed in triplicate. The IC50 was calculated using the log (inhibitor) vs. normalised response – variable slope function in Graphpad Prism. For the adherence assay mean and standard error of the mean were calculated and data analysed using an unpaired t-test, relative to untreated control.
Fig. 3 Inhibition of adherence of Giardia duodenalis by metronidazole (Mz), robenidine, NCL 062 and NCL 099. Cells were exposed to the compounds for 5 h before staining. Stained cells were imaged at 10x magnification and counted using DotCount™ software. Each assay was completed in triplicate and 5 images taken per sample. Top. Number of adherent trophozoites after exposure to 4 μM of each compound for 5 h; Bottom. An example of the Dotcount software identifying trophozoites at higher magnification. Left: stained trophozoites, Right: highlighted trophozoites identified by the Dotcount software. Each highlighted cell is counted individually. Error ± SEM. * p-value <0.05, ** p-value <0.0001.

For data set [7], the system named is Giardia duodenalis BAH2c2 strain, assemblage A. Briefly: Resazurin reduction assay, assemblage A isolate. The data set is classed as cell-based.
Data set [8] has as its system G. duodenalis trophozoites. Briefly: Giardia recovery assay. The format is cell-based, Giardia duodenalis. As to conditions: 5 h at 5x the IC50, counts at 24 and 48 h post exposure. The method, then:
G. duodenalis trophozoites were harvested on ice as outlined above and 5 × 10^5 cells/mL were added to 1.5 mL centrifuge tubes. […] After exposure cells were collected by placing tubes on ice for 40 min followed by centrifugation at 900×g for 5 min. The supernatant was removed and cells were resuspended in 8 mL of fresh media (in a 9 mL culture tube). The number of trophozoites was counted using a haemocytometer and cells were incubated for 48 h with cell numbers being determined at 24 and 48 h.
Fig. 7 Recovery assay of Giardia duodenalis exposed to robenidine and metronidazole. Giardia trophozoites were exposed to robenidine or metronidazole for 5 h at 5x the IC50. Key: closed circle – growth control, triangle – metronidazole, square – robenidine, open circle – NCL 062, diamond – NCL 099. Cell numbers were determined at 24 and 48 h post exposure. Error ± SD.

Data set [9] is described as follows: In vitro cytotoxicity, murine macrophage cells. As to conditions: mouse, RAW 264.7 murine macrophage cells.
Data set [10] deals with Giardia trophozoites. Briefly: Morphology of stained trophozoites at 100x magnification. The format is cell-based, Giardia duodenalis. The method, then:
as §5
Fig. 4 Morphological effect of Robenidine and NCL 099 on Giardia trophozoites. Giardia trophozoites were exposed to each compound for 24 h before fixation with glutaraldehyde and staining following the Diff quik protocol. A-control cells, B – cells treated with metronidazole (IC50, 2 μM), C- robendine treated cells (IC50, 2 μM), D – NCL 099 treated cells (IC50, 3 μM), E − NCL 099 treated cells (2 x IC50).

Where [11] appears, read: BAH2c2, 1000 trophozoites per well.
[12] abbreviates: BAH2c2, 24 h, resazurin metabolic assay.

With `CCCSc1ccc2nc(NC(=O)OC)[nH]c2c1` [Albendazole], the values for the IC50 in data set [1] and in [3] were 800 ± 700 nM and less than 20 nM, respectively. In addition, the Reported efficacy in [2] was 62–95%. The “MLC (minimum lethal concentration), Assemblage A” value (from here on “MLC … Assemblage A”) in [3] (BAH2c2, 24 h) fell in the range of 0.02 to 0.07 µM.

Take `Cl.Cl.Cl.N=C(N)c1cccc(/C=N/N=C(\N)N/N=C/c2cccc(C(=N)N)c2)c1` [CGP 40215A]: the “Binding to the AT region of DNA” value in data set [4] is “strong bond”.

As to `Cc1ncc([N+](=O)[O-])n1CCO` [Metronidazole], in data set [5], the “MLC, Assemblage B” value came out at 16.6 µM (≈ 2.84 µg/mL). Further, the values for the IC50 in data set [5], in data set [1] (setting [11]) and in [3] (setting [12]) were 3800 ± 500 nM, 1700 ± 2000 nM and 2000 ± 1000 nM, respectively. Moreover, in [6], the “Effect on adherence of trophozoites” value is on record as “no significant effect on cell adherence”. The “Time required to exhibit inhibitory activity” value in [7] amounted to 24 h. Moreover, the “Recovery of trophozoites after short-term exposure” value (“Recovery of trophozoites” below) in [8] is reported as “did not have any permanent effects”. Also, in [2], the Treatment success rate is 80–90%. Moreover, the “MLC … Assemblage A” value in data set [3] (BAH2c2, 24 h) came out at 2.8 µM (≈ 0.479 µg/mL).

On to `C/C(=N\NC(=N)N/N=C(\C)c1ccc(Cl)cc1)c1ccc(Cl)cc1.Cl` [NCL 062, (E)-N'-((E)-1-(4-chlorophenyl)ethylidene)-2-(1-(4-chlorophenyl)ethylidene)hydrazine-1-carboximidhydrazide hydrochloride], for which the “MLC, Assemblage B” value in [5] is 3.1 µM. Besides, the values for the IC50 in data set [5], in data set [1] (setting [11]) and in data set [3] (setting [12]) were 1800 ± 0.8 nM, 2000 ± 1300 nM and 800 ± 600 nM, respectively. Moreover, in [6], the “Effect on adherence of trophozoites” value is “complete inhibition of adherence”. In addition, the “Recovery of trophozoites” value in data set [8] is “unable to recover”. Further, the “MLC … Assemblage A” value in data set [3] (BAH2c2, 24 h) is 0.9 µM. In [9], this compound came in with a GI50 of 4000 nM.

As for `CC(C)(C)c1ccc(/C=N/NC(=N)N/N=C/c2ccc(C(C)(C)C)cc2)cc1.Cl` [NCL 099, N′,2-bis((E)-4-(tert-butyl)benzylidene)hydrazine-1-carboximidhydrazide hydrochloride], in data set [5], the “MLC, Assemblage B” value was 5.5 µM. Further, the IC50 in [5] was 3300 ± 200 nM; in data set [1] (setting [11]), 11100 ± 800 nM; in data set [3] (setting [12]) it was 3000 ± 300 nM. Moreover, the “Morphological effect on stained trophozoites at 2 x the IC50” value in data set [10] (2 x IC50, 100 x magnification) is “disintegration of the cell membrane”. Further, the “Morphological effect on stained trophozoites at the IC50” value in data set [10] (at IC50, 100 x magnification) is “decrease in the membrane stain intensity”. Further, in [6], the “Effect on adherence of trophozoites” value is listed as “significantly affected adherence of trophozoites at 4 μM, but did not completely inhibit adherence”. Also, the “Recovery of trophozoites” value in data set [8] is on record as “able to recover after short-term exposure but growth was slower”. In addition, the “MLC … Assemblage A” value in data set [3] (BAH2c2, 24 h) stood at 8.3 µM. The compound further displayed a GI50 in data set [9] of 7300 nM.

For `CCS(=O)(=O)CCn1c([N+](=O)[O-])cnc1C` [tinidazole], the Treatment success rate in [2] is on record as 80–90%.
